Laboratory results: ChEMBL document CHEMBL4627415, “Design and Structural Optimization of Dual FXR/PPARδ Activators” (J Med Chem, 2020)
Calls of active or inactive are those of the source. No cut-off for these calls is given here.

What was measured:
Type in all cases: cell-based
Details in all cases: HEK-293T
[1] = biological target: T1, Bile acid receptor (Homo sapiens) (UniProt Q96RI1); assay: Activation of human FXR LBD expressed in HEK293T cells assessed as induction of receptor activation at 1 uM incubated for 12 to 14 hrs by luciferase reporter gene assay relative to GW4064
T1 sequence (whole entry): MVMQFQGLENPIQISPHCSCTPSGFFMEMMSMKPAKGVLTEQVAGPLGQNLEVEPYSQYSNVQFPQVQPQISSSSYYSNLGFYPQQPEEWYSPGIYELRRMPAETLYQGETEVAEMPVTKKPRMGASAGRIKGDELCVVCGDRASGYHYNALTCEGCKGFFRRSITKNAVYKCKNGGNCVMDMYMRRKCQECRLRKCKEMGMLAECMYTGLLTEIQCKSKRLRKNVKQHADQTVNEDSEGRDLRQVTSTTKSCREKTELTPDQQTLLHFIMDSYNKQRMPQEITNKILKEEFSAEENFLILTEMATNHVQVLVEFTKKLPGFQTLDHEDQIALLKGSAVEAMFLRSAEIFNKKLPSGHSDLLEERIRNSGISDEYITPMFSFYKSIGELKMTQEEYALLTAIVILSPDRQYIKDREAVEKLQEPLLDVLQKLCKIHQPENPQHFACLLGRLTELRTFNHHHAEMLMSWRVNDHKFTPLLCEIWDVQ

[2] = biological target: T2, Retinoic acid receptor RXR-alpha (Homo sapiens) (UniProt P19793); assay: Activation of human RXR-alphaLBD expressed in HEK293T cells assessed as induction of receptor activation at 10 uM incubated for 12 to 14 hrs by luciferase reporter gene assay
T2 sequence (whole entry): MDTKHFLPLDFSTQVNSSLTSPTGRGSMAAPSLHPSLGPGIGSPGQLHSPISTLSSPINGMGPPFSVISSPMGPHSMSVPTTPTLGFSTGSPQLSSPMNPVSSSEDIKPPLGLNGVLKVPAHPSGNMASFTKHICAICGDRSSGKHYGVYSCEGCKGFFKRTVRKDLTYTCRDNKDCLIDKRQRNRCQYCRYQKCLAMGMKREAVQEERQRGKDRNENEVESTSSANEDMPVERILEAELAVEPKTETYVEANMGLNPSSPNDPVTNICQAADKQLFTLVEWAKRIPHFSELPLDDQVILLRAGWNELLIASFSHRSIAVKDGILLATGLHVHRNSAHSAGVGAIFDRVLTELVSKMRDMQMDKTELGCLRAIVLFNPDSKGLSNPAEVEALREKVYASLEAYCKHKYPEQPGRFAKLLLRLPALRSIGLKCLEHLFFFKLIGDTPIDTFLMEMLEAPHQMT

[3] = biological target: T3, Retinoic acid receptor alpha (Homo sapiens) (UniProt P10276); assay: Activation of human RAR-alphaLBD expressed in HEK293T cells assessed as induction of receptor activation at 10 uM incubated for 12 to 14 hrs by luciferase reporter gene assay
T3 sequence (whole entry): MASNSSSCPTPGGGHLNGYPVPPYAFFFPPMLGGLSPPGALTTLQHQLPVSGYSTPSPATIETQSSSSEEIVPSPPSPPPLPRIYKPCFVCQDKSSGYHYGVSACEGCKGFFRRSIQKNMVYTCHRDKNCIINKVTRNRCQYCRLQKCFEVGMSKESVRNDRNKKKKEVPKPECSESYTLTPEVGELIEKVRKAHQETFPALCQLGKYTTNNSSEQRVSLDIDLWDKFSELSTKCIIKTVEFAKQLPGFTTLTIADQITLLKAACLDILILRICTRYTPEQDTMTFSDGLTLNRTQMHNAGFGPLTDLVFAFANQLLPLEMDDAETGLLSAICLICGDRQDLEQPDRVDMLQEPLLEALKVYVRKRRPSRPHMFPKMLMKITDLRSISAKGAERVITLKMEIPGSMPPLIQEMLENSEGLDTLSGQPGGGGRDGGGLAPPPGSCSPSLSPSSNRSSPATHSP

Question: Which results are given for `CC(C)c1onc(-c2c(Cl)cccc2Cl)c1COc1ccc(CNc2ccc(CC(=O)O)cc2)c(Cl)c1`?
Answer: %max [1]: 31%; Activity [2]: inactive; Activity [3]: inactive
